Measurements: patent US9029531B2 (Agios Pharmaceuticals, Inc., priority 2012, dated 2015)
pIC50: −log10 of the molar value.

What follows are compounds tested against T1, glutaminase (GAC) (Homo sapiens, UniProt O94925) (assay: Glutaminase coupled endpoint enzymatic assay (Example A)). Conditions: inhibition of glutaminase; assay of Example A or Example B.
T1 sequence (O94925 55-598 isoform O94925-3 limits assumed): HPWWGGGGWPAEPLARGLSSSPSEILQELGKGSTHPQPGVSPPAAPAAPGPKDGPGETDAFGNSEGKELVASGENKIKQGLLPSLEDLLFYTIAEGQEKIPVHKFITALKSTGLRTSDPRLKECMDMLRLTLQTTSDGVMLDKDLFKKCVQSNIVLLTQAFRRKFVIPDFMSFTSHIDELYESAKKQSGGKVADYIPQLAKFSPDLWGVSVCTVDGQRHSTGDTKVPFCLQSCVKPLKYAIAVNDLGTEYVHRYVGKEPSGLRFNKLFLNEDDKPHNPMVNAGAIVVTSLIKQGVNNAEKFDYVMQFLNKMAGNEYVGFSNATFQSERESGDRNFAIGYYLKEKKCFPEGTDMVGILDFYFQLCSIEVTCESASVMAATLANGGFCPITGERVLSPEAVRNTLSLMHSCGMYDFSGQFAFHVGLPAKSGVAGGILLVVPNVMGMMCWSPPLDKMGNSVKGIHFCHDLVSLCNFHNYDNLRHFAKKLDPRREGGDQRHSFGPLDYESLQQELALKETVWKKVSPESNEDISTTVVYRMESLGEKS
Type: biochemical
Method in brief: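 Endpoint coupled assay: glutamate formed by GAC drives GDH NADH production, recycled by diaphorase reducing resazurin to fluorescent resorufin (Ex544/Em590) after SDS stop. Buffer pH 8.5 with phosphate; glutamine at Km; enzyme preincubated with compound 60 min at room temperature.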
A pIC50 of over 7.00 was found for O=C(Cc1ccc(N2CC(F)(F)C2)nc1)Nc1nnc([C@H]2CCC[C@H](c3nnc(NC(=O)Cc4ccc(N5CC(F)(F)C5)nc4)s3)C2)s1 [Compound 271, N,N′-(5,5′-((1S,3S)-cyclohexane-1,3-diyl)bis(1,3,4-thiadiazole-5,2-diyl))bis(2-(6-(3,3-difluoroazetidin-1-yl)pyridin-3-yl)acetamide)] in this work.
A pIC50 of over 7.00 was found for O=C(Cc1cccc(C2CCNCC2)c1)Nc1nnc([C@H]2CCC[C@H](c3nnc(NC(=O)Cc4cccc(C5CCNCC5)c4)s3)C2)s1 [Compound 272, N,N′-(5,5′-((1S,3S)-cyclohexane-1,3-diyl)bis(1,3,4-thiadiazole-5,2-diyl))bis(2-(3-(piperidin-4-yl)phenyl)acetamide)] in this work.
A pIC50 of over 7.00 was found for O=C(Cc1c[nH]cn1)Nc1nnc([C@H]2CCC[C@H](c3nnc(NC(=O)Cc4c[nH]cn4)s3)C2)s1 [Compound 273, N,N′-(5,5′-((1S,3S)-cyclohexane-1,3-diyl)bis(1,3,4-thiadiazole-5,2-diyl))bis(2-(1H-imidazol-4-yl)acetamide)] in this work.
A pIC50 of over 7.00 was found for Nc1nc(CC(=O)Nc2nnc([C@H]3CCC[C@H](c4nnc(NC(=O)Cc5csc(N)n5)s4)C3)s2)cs1 [Compound 274, N,N′-(5,5′-((1S,3S)-cyclohexane-1,3-diyl)bis(1,3,4-thiadiazole-5,2-diyl))bis(2-(2-aminothiazol-4-yl)acetamide)] in this work.
A pIC50 of over 7.00 was found for CNc1nc(CC(=O)Nc2nnc([C@H]3CCC[C@H](c4nnc(NC(=O)Cc5csc(NC)n5)s4)C3)s2)cs1 [Compound 275, N,N′-(5,5′-((1S,3S)-cyclohexane-1,3-diyl)bis(1,3,4-thiadiazole-5,2-diyl))bis(2-(2-(methylamino)thiazol-4-yl)acetamide)] in this work.
A pIC50 of 6.30 to 7.00 was found for O=C(Cc1csc(N2CCOCC2)n1)Nc1nnc([C@H]2CCC[C@H](c3nnc(NC(=O)Cc4csc(N5CCOCC5)n4)s3)C2)s1 [Compound 276, N,N′-(5,5′-((1S,3S)-cyclohexane-1,3-diyl)bis(1,3,4-thiadiazole-5,2-diyl))bis(2-(2-morpholinothiazol-4-yl)acetamide)] in this work.
A pIC50 of 6.30 to 7.00 was found for CN(C)c1nc(CC(=O)Nc2nnc([C@H]3CCC[C@H](c4nnc(NC(=O)Cc5csc(N(C)C)n5)s4)C3)s2)cs1 [Compound 278, N,N′-(5,5′-((1S,3S)-cyclohexane-1,3-diyl)bis(1,3,4-thiadiazole-5,2-diyl))bis(2-(2-(dimethylamino)thiazol-4-yl)acetamide)] in this work.
A pIC50 of over 7.00 was found for COc1nc(CC(=O)Nc2nnc([C@H]3CCC[C@H](c4nnc(NC(=O)Cc5csc(OC)n5)s4)C3)s2)cs1 [Compound 279, N,N′-(5,5′-((1S,3S)-cyclohexane-1,3-diyl)bis(1,3,4-thiadiazole-5,2-diyl))bis(2-(2-methoxythiazol-4-yl)acetamide)] in this work.
A pIC50 of over 7.00 was found for COCCOc1ccc(CC(=O)Nc2nnc([C@H]3CCC[C@H](c4nnc(NC(=O)Cc5cccc(N6CC(F)(F)C6)n5)s4)C3)s2)nc1 [Compound 280, 2-(6-(3,3-difluoroazetidin-1-yl)pyridin-2-yl)-N-(5-((1S,3S)-3-(5-(2-(5-(2-methoxyethoxy)pyridin-2-yl)acetamido)-1,3,4-thiadiazol-2-yl)cyclohexyl)-1,3,4-thiadiazol-2-yl)acetamide] in this work.
A pIC50 of over 7.00 was found for CC(=O)Nc1nnc([C@H]2CCC[C@H](c3nnc(NC(=O)Cc4cccc(N5CC(F)(F)C5)n4)s3)C2)s1 [Compound 281, N-(5-((1S,3S)-3-(5-acetamido-1,3,4-thiadiazol-2-yl)cyclohexyl)-1,3,4-thiadiazol-2-yl)-2-(6-(3,3-difluoroazetidin-1-yl)pyridin-2-yl)acetamide] in this work.
A pIC50 of over 7.00 was found for CCC(=O)Nc1nnc([C@H]2CCC[C@H](c3nnc(NC(=O)Cc4cccc(N5CC(F)(F)C5)n4)s3)C2)s1 [Compound 282, N-(5-((1S,3S)-3-(5-(2-(6-(3,3-difluoroazetidin-1-yl)pyridin-2-yl)acetamido)-1,3,4-thiadiazol-2-yl)cyclohexyl)-1,3,4-thiadiazol-2-yl)propionamide] in this work.
A pIC50 of 6.30 to 7.00 was found for O=C(Cc1cccc(N2CC(F)(F)C2)n1)Nc1nnc([C@H]2CCC[C@H](c3nnc(NC(=O)C4CC4)s3)C2)s1 [Compound 283] in this work.
A pIC50 of over 7.00 was found for COc1ccccc1CC(=O)Nc1nnc([C@H]2CC[C@H](c3nnc(NC(=O)Cc4ccccc4OC)s3)C2)s1 [Compound 284, N,N′-(5,5′-((1S,3S)-cyclopentane-1,3-diyl)bis(1,3,4-thiadiazole-5,2-diyl))bis(2-(2-methoxyphenyl)acetamide)] in this work.
A pIC50 of over 7.00 was found for CN(C)c1cccc(CC(=O)Nc2nnc([C@H]3CC[C@H](c4nnc(NC(=O)Cc5cccc(N(C)C)c5)s4)C3)s2)c1 [Compound 285, N,N′-(5,5′-((1S,3S)-cyclopentane-1,3-diyl)bis(1,3,4-thiadiazole-5,2-diyl))bis(2-(3-(dimethylamino)phenyl)acetamide)] in this work.
A pIC50 of over 7.00 was found for COc1ccc(CC(=O)Nc2nnc([C@H]3CC[C@H](c4nnc(NC(=O)Cc5ccc(OC)nc5)s4)C3)s2)cn1 [Compound 286, N,N′-(5,5′-((1S,3S)-cyclopentane-1,3-diyl)bis(1,3,4-thiadiazole-5,2-diyl))bis(2-(6-methoxypyridin-3-yl)acetamide)] in this work.
A pIC50 of over 7.00 was found for COc1ccnc(CC(=O)Nc2nnc([C@H]3CC[C@H](c4nnc(NC(=O)Cc5cc(OC)ccn5)s4)C3)s2)c1 [Compound 287] in this work.
A pIC50 of over 7.00 was found for O=C(Cc1cccc(N2CC(F)(F)C2)n1)Nc1nnc([C@H]2CC[C@H](c3nnc(NC(=O)Cc4cccc(N5CC(F)(F)C5)n4)s3)C2)s1 [Compound 288, N,N′-(5,5′-((1S,3S)-cyclopentane-1,3-diyl)bis(1,3,4-thiadiazole-5,2-diyl))bis(2-(6-(3,3-difluoroazetidin-1-yl)pyridin-2-yl)acetamide)] in this work.
A pIC50 of 6.30 to 7.00 was found for CN(C)c1cccc(CC(=O)Nc2nnc([C@H]3CC[C@H](c4nnc(NC(=O)Cc5cccc(N(C)C)n5)s4)C3)s2)n1 [Compound 289, N,N′-(5,5′-((1S,3S)-cyclopentane-1,3-diyl)bis(1,3,4-thiadiazole-5,2-diyl))bis(2-(6-(dimethylamino)pyridin-2-yl)acetamide)] in this work.
A pIC50 of over 7.00 was found for O=C(Cc1ccc(C2CCNCC2)cc1)Nc1nnc([C@H]2CCC[C@H](c3nnc(NC(=O)Cc4ccc(C5CCNCC5)cc4)s3)C2)s1 [Compound 290] in this work.
